Measured values taken from ChEMBL document CHEMBL1139630, “Structure-activity relationship of N-methyl-bisindolylmaleimide derivatives as cell death inhibitors” (Bioorg Med Chem Lett, 2005).

Tests used:
[1] = target: T1, AMP-activated protein kinase, AMPK (Homo sapiens) (UniProt P54646+O43741+P54619+Q9UGJ0+Q9Y478+Q13131+Q9UGI9); assay: Residual activity of AMP-activated Protein Kinase (AMPK) at 1 uM
[2] = target: Ribosomal protein S6 kinase alpha-3 (Homo sapiens) (UniProt P51812); assay: Residual activity of Ribosomal S6 kinase 2 (RSK2) at 1 uM
[3] = target: T2, Ribosomal protein S6 kinase beta-1 (Homo sapiens, UniProt P23443); conditions: 50 uM
Target sequence in this assay (P23443 whole entry, looked up): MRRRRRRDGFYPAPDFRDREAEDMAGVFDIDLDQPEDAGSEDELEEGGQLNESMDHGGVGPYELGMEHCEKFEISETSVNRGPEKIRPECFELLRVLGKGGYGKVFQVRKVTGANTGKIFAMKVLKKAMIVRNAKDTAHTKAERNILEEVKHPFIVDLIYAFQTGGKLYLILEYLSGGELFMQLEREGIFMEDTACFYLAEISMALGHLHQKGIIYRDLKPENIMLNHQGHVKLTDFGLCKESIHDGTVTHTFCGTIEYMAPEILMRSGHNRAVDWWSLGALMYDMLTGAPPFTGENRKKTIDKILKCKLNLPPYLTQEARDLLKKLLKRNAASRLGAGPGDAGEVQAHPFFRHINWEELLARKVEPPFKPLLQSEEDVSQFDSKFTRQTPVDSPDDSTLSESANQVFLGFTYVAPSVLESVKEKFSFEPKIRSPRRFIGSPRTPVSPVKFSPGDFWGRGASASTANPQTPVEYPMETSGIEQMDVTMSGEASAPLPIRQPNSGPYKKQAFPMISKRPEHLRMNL
Description: Inhibition of Ribosomal protein S6 kinase 1 (S6K1) at 50 uM

[4] = target: T3, Serine/threonine-protein kinase Chk1 (Homo sapiens) (UniProt O14757); assay: Residual activity of Serine/threonine-protein kinase Chk1 (CHK1) at 50 uM
T3 sequence (whole entry): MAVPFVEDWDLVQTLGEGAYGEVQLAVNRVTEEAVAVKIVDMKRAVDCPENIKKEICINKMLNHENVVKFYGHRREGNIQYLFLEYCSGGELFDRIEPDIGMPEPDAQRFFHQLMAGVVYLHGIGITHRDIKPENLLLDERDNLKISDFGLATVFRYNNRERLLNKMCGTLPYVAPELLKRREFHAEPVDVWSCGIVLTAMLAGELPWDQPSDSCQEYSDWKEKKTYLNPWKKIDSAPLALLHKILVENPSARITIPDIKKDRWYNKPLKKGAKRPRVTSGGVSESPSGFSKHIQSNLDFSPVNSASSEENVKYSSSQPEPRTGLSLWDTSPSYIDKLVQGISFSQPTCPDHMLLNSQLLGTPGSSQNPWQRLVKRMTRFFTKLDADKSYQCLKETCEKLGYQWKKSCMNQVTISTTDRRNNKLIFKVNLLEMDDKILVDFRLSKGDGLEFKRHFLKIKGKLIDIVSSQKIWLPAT

[5] = target: Ribosomal protein S6 kinase alpha-5 (Homo sapiens) (UniProt O75582); assay: Residual activity of MSK-1 kinase (MSK1) at 50 uM
[6] = target: T4, Serine/threonine-protein kinase Sgk1 (Homo sapiens) (UniProt O00141); assay: Residual activity of Serum/glucocorticoid regulated kinase (SGK) at 50 uM
T4 sequence (whole entry): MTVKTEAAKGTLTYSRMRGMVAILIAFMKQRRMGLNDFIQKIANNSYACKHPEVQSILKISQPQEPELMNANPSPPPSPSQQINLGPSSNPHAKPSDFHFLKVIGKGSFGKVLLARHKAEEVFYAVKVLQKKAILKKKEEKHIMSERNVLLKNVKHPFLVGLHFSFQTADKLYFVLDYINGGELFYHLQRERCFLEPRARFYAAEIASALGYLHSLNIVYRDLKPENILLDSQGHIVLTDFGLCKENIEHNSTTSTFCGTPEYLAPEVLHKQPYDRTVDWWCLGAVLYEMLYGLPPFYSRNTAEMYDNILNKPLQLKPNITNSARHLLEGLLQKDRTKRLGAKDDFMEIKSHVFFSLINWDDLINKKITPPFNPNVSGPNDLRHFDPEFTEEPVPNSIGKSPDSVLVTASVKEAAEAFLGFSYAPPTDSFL

[7] = target: T1, AMP-activated protein kinase, AMPK (Homo sapiens); assay: Residual activity of AMP-activated Protein Kinase (AMPK) at 50 uM
[8] = target: Ribosomal protein S6 kinase alpha-3 (Homo sapiens) (UniProt P51812); assay: Residual activity of Ribosomal S6 kinase 2 (RSK2) at 50 uM
[9] = target: Glycogen synthase kinase-3 beta (Homo sapiens) (UniProt P49841); assay: Residual activity of Glycogen synthase kinase-3 beta (GSK3-beta) at 50 uM
[10] = target: Protein kinase C alpha type (Homo sapiens) (UniProt P17252); assay: Residual activity of Protein kinase C alpha (PKCalpha) at 50 uM
[11] = target: T2, Ribosomal protein S6 kinase beta-1; assay: Inhibition of Ribosomal protein S6 kinase 1 (S6K1)
Target sequence in this assay (P23443 whole entry): as the sequence (P23443 whole entry, looked up) above

Ribosomal protein S6 kinase alpha-3 (Homo sapiens), sequence (P51812 whole entry): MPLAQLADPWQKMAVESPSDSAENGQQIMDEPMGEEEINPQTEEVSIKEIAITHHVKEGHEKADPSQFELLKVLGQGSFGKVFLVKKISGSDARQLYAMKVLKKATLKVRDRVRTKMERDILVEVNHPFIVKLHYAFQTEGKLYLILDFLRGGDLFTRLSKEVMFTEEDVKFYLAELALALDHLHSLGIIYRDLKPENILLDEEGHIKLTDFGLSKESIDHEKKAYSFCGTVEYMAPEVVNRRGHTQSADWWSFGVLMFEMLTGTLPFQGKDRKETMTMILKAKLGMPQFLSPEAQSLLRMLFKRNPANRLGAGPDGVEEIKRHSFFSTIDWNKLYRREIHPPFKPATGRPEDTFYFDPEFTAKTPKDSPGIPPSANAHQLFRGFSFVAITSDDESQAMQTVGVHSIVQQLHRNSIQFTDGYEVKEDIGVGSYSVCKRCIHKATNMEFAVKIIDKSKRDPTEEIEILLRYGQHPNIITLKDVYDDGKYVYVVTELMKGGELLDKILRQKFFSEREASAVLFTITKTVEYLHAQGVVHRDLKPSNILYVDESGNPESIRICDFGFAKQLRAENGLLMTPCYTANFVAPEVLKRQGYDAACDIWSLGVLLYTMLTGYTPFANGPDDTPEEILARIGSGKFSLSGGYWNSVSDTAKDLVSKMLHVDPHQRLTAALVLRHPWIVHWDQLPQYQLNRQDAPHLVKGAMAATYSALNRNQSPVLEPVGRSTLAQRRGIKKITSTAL
Ribosomal protein S6 kinase alpha-5 (Homo sapiens), sequence (O75582 whole entry, looked up): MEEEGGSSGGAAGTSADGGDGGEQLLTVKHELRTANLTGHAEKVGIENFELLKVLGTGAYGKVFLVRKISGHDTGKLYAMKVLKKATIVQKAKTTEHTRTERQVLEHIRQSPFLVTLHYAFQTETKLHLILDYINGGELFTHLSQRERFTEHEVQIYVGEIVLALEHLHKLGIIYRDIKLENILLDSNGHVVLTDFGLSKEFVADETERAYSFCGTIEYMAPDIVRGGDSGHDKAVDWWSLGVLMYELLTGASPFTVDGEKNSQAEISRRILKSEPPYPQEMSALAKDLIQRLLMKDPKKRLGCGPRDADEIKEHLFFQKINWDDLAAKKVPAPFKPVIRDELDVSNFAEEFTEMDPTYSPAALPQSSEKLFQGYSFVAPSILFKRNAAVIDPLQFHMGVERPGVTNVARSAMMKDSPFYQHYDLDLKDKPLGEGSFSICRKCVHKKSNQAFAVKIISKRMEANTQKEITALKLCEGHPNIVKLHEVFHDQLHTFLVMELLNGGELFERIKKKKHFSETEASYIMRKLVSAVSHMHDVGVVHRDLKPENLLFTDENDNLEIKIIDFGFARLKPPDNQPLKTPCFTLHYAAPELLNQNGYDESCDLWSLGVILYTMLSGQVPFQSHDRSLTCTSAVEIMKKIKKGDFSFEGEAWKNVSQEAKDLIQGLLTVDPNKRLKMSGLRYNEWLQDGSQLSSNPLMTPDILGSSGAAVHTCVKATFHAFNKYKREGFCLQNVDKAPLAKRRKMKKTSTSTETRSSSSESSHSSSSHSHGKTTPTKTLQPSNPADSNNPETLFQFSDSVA
Glycogen synthase kinase-3 beta (Homo sapiens), sequence (P49841 whole entry, looked up): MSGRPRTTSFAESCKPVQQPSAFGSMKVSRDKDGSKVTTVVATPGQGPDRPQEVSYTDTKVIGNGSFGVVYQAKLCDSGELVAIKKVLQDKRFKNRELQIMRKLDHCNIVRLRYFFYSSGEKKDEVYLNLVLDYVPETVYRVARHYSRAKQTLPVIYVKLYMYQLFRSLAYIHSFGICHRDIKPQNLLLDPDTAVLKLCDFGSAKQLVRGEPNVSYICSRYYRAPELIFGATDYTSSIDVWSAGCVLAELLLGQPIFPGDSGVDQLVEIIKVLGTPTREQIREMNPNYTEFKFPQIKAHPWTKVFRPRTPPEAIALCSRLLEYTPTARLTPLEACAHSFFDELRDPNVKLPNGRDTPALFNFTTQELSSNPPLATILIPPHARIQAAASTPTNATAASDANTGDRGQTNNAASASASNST

Compound CN(C)CCCn1cc(C2=C(c3c[nH]c4ccccc34)C(=O)NC2=O)c2ccccc21 has a residual activity [1] of 54% and a residual activity [2] of 9%.
CN1C(=O)C(c2c[nH]c3ccccc23)=C(c2cn(CCCN)c3ccccc23)C1=O showed a residual activity [3] of 28%, a residual activity [4] of 93% and a residual activity [5] of 90%. It also gave a residual activity [6] of 109%, a residual activity [7] of 88% and a residual activity [8] of 106%. The residual activity [9] was 94%, the residual activity [10] was 66% and the IC50 [11] was 25 µM.
